In article PMC4057637, “Efficacy of novel antibacterial compounds targeting histidine kinase YycG protein” (Applied Microbiology and Biotechnology, 2014):
Values after ≈ are worked out from the molar mass of the structure shown.

How the values were obtained:
[1] = tested on: Clinical MRSE strains; test: MIC, broth dilution; assay type: cell-based, S. epidermidis; conditions: Staphylococcus epidermidis; Clinical MRSE strains (n = 5)
Description: (§1) Bacterial strains S. epidermidis ATCC 12228 (nonbiofilm forming), S. epidermidis ATCC 35984 (biofilm forming), S. aureus ATCC 49230, and S. aureus ATCC 25923 were from the American Type Culture Collection (ATCC, Manassas, USA) and were cultured in tryptic soy broth medium (TSB; Oxoid Ltd., Basingstoke, England). Ten clinical methicillin-resistant staphylococcal isolates, five MRSA isolates and five MRSE isolates, were collected from Huadong Teaching Hospital in Shanghai. Escherichia coli ATCC 25922 was grown in Luria-Bertani (LB) broth. The six compounds used in this study (H2-38, H2-39, H2-57, H2-60, H2-74, and H2-81) were screened from 56 derivatives of compound 2 in which the functional groups were modified, but the thiazolidine core structure was unchanged. The compounds were synthesized by Nanjing University of Technology. To generate the derivative compounds, halogen atoms were introduced into 4-thiazolidinone compounds that contained carboxylic acid moieties of phenoxy-acetic acid, (5-vinyl-furan-2-yl)-benzoic acid or (5-vinyl-thiophene-2-yl)-benzoic acid. The derivatives were dissolved in dimethyl sulfoxide (DMSO; Amresco, USA) to 200 mM for use as stock solutions.
(§2) MICs of the derivatives for S. epidermidis and S. aureus were determined by the broth dilution method according to the National Committee for Clinical Laboratory (NCCLS) recommendations (Turnidge and Bordash [2007]). Twofold dilutions of the derivatives in tubes containing 4 ml of Mueller-Hinton broth (MH, Sigma, Germany) were made to concentrations from 200 to 0.39 μM. Overnight cultures of the bacteria were adjusted to the 0.5 McFarland standards and inoculated 1:200 into the MH broth and then incubated at 37 °C for 16–20 h. The lowest concentration inhibiting visible growth of the bacteria was recorded as minimal inhibitory concentration (MIC).

[2] = tested on: E. coli ATCC 25922; test: MIC, broth dilution; assay type: cell-based; conditions: Escherichia coli, ATCC25922, 200 μM highest concentration used
Description: as §1, §2

[3] = molecular target: T1, recombinant YycG′ (Staphylococcus epidermidis, UniProt Q5HK19); test: Inhibition of YycG′ autophosphorylation (Kinase-Glo Luminescent Kinase Assay); assay type: biochemical, S. epidermidis; conditions: for IC50: autophosphorylation of recombinant YycG′, Kinase-Glo; for inhibition of enzymatic autophosphorylation of YycG′: 100 μM derivative, YycG′ 0.13 μM
T1 construct: made in house; host or cells: E. coli BL21 (DE3)
T1 sequence (Q5HK19 370-610): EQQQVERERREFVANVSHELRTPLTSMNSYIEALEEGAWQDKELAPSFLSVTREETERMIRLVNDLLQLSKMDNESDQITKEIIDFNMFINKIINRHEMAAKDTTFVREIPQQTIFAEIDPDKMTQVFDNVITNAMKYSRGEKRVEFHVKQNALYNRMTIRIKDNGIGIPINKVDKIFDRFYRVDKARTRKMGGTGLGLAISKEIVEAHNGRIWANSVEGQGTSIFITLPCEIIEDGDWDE
Description: Recombinant YycG (YycG′, amino acids 370–610) was prepared by expressing the HATPase_c and HisKA domains of YycG in E. coli BL21 (DE3). In brief, the sequence coding for YycG′ was amplified from the genome of S. epidermidis ATCC 35984 by PCR and cloned into the pET28a (+) vector, which inserts a GB1 tag (B1 domain of protein G, 56 residues) to make the recombinant fusion protein highly soluble and stable. The recombinant YycG′ protein was fused to the GB1 tag at its N-terminus end, expressed in E. coli BL21 (DE3) and purified by Ni^2+ affinity chromatography on a Ni-NTA column (Qiagen, Germany). The purified YycG′ was cleaved by TEV protease and further purified by Ni-NTA and Superdex 75 gel filtration columns (GE Healthcare, USA).
The Kinase-Glo™ Luminescent Kinase Assay (Promega, Madison, WI, USA) was used to measure the inhibitory activities of the derivatives against the autophosphorylation activity of the recombinant YycG′ following the manufacturer’s recommendation. The derivatives were serially diluted from 200 to 1.6 μM with reaction buffer (40 mM Tris pH 8.0, 20 mM MgCl2, and 0.1 mg/ml BSA). Recombinant YycG′ (0.02 μg/μl) and diluted derivative were added into a 96-well plate and incubated at 25 °C for 30 min, and then 4 μM ATP was added into each well and incubated for another 30 min. Finally, 50 μl Kinase-Glo™ Reagent containing luciferase (kinase) and D-luciferin was added. The luminescent signal generated by luciferase was in proportion to the amount of ATP remaining in the reaction. Luminescence was detected by a Perkin Elmer Victor X5 luminescence plate reader, and the intensity was recorded as relative light units (RLU). The wells containing ATP and Kinase-Glo™ without YycG′ and derivatives or containing YycG′ plus ATP and Kinase-Glo™ without the derivatives were used as the controls. The percentage inhibition of protein phosphorylation (Rp) by the derivatives was calculated as follows: Rp=RLUYycG^’+derivative+ATP+Kinase-Glo^TM-RLUYycG^’+ATP+Kinase-Glo^TM/RLUATP+Kinase-Glo^TM-RLUYycG^’+ATP+Kinase-Glo^TM×100
The concentration of a derivative required to inhibit half of the autophosphorylation of recombinant YycG′ (half maximal inhibitory concentration, IC50) was calculated with Origin 8.0 software (Origin Lab, Northampton, USA). Three independent assays were carried out, and each was performed in quadruplicate.

[4] = tested on: Clinical MRSA strains; test: MIC, broth dilution; assay type: cell-based, S. aureus; conditions: Staphylococcus aureus; Clinical MRSA strains (n = 5)
Description: as §1, §2

[5] = tested on: S. epidermidis ATCC 35984; test: Derivatives combined with vancomycin or cefazolin (FIC index); assay type: cell-based; conditions: for MIC: Staphylococcus epidermidis, ATCC35984, line paired with vancomycin, read-out: MIC Derivative alone; for MIC Derivative alone: line paired with cefazolin
Description: Combination antimicrobial therapy is widely used to take advantage of different mechanisms of action. It may potentiate the effect of individual antimicrobial agents by synergic action (Bijnsdorp et al. [2011]; Cokol et al. [2011]). The glycopeptide antibiotics, such as vancomycin, can bind the peptidoglycan side chains in the cell wall and prevent cross-linking during cell wall synthesis. Vancomycin has been considered to be one of the most reliable therapeutic agents against staphylococcal infections, but it is unable to clear biofilms even at high concentration (128 mg/l) (Climo et al. [1999]; Darouiche et al. [1994]; Tenover et al. [2001]). […] YycGF also plays an important role in the synthesis of peptidoglycan in B. subtilis and S. aureus (Bisicchia et al. [2007]; Dubrac and Msadek [2004]). In a preliminary study, we assessed the effects of the combined application of the derivatives with vancomycin and cefazolin against S. epidermidis ATCC 35984 according to the method of Odds ([2003]) (Cottagnoud et al. [2003]). […] No antagonism was observed between the derivatives and vancomycin or cefazolin (Table S1).
17 Table S1. The derivatives combined with vancomycin or cefazolin against S. epidermidis
Derivatives Antibiotics MIC (mg/L) FICIa Synergyb
Derivative Antibiotic In combination
alone alone (Derivative/Antibiotic)
19 a The FICI was calculated as FIC indexes= (MICderivative A in combination/MICderivative A
20 alone)+(MICantibiotic B in combination/MIC antibiotic B alone).
21 b The interaction between the two antibacterials is noted as follows: FIC index≤0.5,
22 Synergy (+); 0.5<FIC index≤4 (-), No interaction; FIC≥4.0, Antagonism.

[6] = cefazolin combined with the labelled derivative
[7] = derivative combined with cefazolin
[8] = derivative combined with vancomycin
[9] = vancomycin combined with the labelled derivative

| SMILES | MIC [1] [µM] | MIC [2] [µM] | IC50 [3] [µM] | MIC [4] [µM] | MIC [5] [µg/mL] | MIC In combination: antibiotic [5, 6] [µg/mL] | FICI ([5]; derivative + cefazolin) | FICI ([5]; derivative + vancomycin) | MIC In combination: derivative [5, 7] [µg/mL] | MIC In combination: derivative [5, 8] [µg/mL] | MIC Derivative alone [5] [µg/mL] | MIC In combination: antibiotic [5, 9] [µg/mL] | inhibition of enzymatic autophosphorylation of YycG′ [3] [%] | interaction with vancomycin or cefazolin (in words) ([5]; S. epidermidis ATCC 35984, preliminary study) |
| --- | --- | --- | --- | --- | --- | --- | --- | --- | --- | --- | --- | --- | --- | --- |
| CCc1ccccc1/N=C1\S/C(=C\c2ccc(OCC(=O)O)c(OC)c2)C(=O)N1c1ccccc1CC [Compound 2, {2-{4-{3-(2-ethylphenyl)-2-[(2-ethylphenyl)imino]-4-oxothiazolidin-5-ylidene}methyl}-2-methoxyphenoxy}acetic acid] | 25 to 50 (≈ 12.9 to 25.8 µg/mL) | > 200 | 47.9 ± 5.3 | 25 to 50 (≈ 12.9 to 25.8 µg/mL) |  |  |  |  |  |  |  |  |  |  |
| O=C(O)c1cccc(-c2ccc(C=C3SC(=Nc4ccc(Cl)cc4)N(c4ccc(Cl)cc4)C3=O)o2)c1 [H2-38, 3-{5-{{3-(4-chlorophenyl)-2-[(4-chlorophenyl)imino]-4-oxothiazolidin-5-ylidene}methyl}furan-2-yl}benzoic acid] | 1.5 to 3.1 (≈ 0.803 to 1.66 µg/mL) | > 200 | 41.4 ± 3.4 | 1.5 to 3.1 (≈ 0.803 to 1.66 µg/mL) | 0.8 | 0.5 | 0.56 | 0.63 | 0.4 | 0.4 | 0.8 | 0.5 | 61.8 |  |
| O=C(O)c1ccc(-c2ccc(C=C3SC(=Nc4ccc(Cl)cc4)N(c4ccc(Cl)cc4)C3=O)o2)cc1 [H2-39, 4-{5-{{3-(4-chlorophenyl)-2-[(4-chlorophenyl)imino]-4-oxothiazolidin-5-ylidene}methyl}furan-2-yl}benzoic acid] | 1.5 to 3.1 (≈ 0.803 to 1.66 µg/mL) | > 200 | 59.8 ± 1.4 | 1.5 to 3.1 (≈ 0.803 to 1.66 µg/mL) | 0.8 | 0.25 | 0.53 | 1.13 | 0.4 | 0.8 | 0.8 | 0.5 | 56.3 |  |
| O=C(O)c1ccc(-c2ccc(/C=C3\S/C(=N\c4ccccc4)N(c4ccc(Cl)cc4)C3=O)o2)cc1 [H2-57, 4-{5-{{3-(4-chlorophenyl)-2-[(4-phenyl)imino]-4-oxothiazolidin-5-ylidene}methyl}furan-2-yl}benzoic acid] | 1.5 to 3.1 (≈ 0.751 to 1.55 µg/mL) | > 200 | 47.1 ± 1.5 | 1.5 to 3.1 (≈ 0.751 to 1.55 µg/mL) | 1.7 | 0.25 | 0.53 | 1.13 | 0.85 |  |  | 0.5 | 59.7 |  |
| O=C(O)c1ccc(-c2ccc(C=C3SC(=Nc4ccc(F)cc4)N(c4ccc(F)cc4)C3=O)s2)cc1 [H2-60, 4-{5-{{3-(4-fluorophenyl)-2-[(4-fluorophenyl)imino]-4-oxothiazolidin-5-ylidene}methyl}thiophene-2-yl}benzoic acid] | 1.5 to 3.1 (≈ 0.778 to 1.61 µg/mL) | > 200 | 63.7 ± 2.3 | 1.5 to 3.1 (≈ 0.778 to 1.61 µg/mL) | 1.7 | 0.25 | 0.53 | 0.56 | 0.85 | 0.85 |  | 0.25 | 55.4 |  |
| O=C(O)COc1ccc(C=C2SC(=Nc3ccc(Cl)cc3)N(c3ccc(Cl)cc3)C2=O)cc1 [H2-74, 2-{4-{[3-(4-chlorophenyl)-2-[(4-chlorophenyl)imino]-4-oxothiazolidin-5-ylidene}methyl}phenoxy}acetic acid] | 3.1 to 6.3 (≈ 1.55 to 3.15 µg/mL) | > 200 | 71.2 ± 4.9 | 3.1 to 6.3 (≈ 1.55 to 3.15 µg/mL) | 0.8 | 1 | 0.63 | 0.38 | 0.4 | 0.2 | 0.8 | 0.5 | 53.9 |  |
| O=C(O)c1ccc(-c2ccc(/C=C3\S/C(=N\c4ccccc4)N(c4ccc(F)cc4)C3=O)s2)cc1 [H2-81, 4-{5-{{3-(4-fluorophenyl)-2-[(4-phenyl)imino]-4-oxothiazolidin-5-ylidene}methyl}thiophene-2-yl}benzoic acid] | 1.5 (≈ 0.751 µg/mL) | > 200 | 24.2 ± 1.2 | 1.5 (≈ 0.751 µg/mL) | 0.7 | 1 | 0.38 | 0.5 | 0.18 | 0.18 | 0.7 | 1 | 79.2 | synergistic effect |
